Target: Acetyl-CoA carboxylase 1 (Rattus norvegicus, UniProt P11497)
Assay: Inhibitory concentration against rat heart ACC by the carboxylation of acetyl-CoA with [14C]-HCO3- to form [14C]-malonyl CoA; 18-40 uM

Row | Structure (SMILES) | IC50 [µM]
1 | CC/C(=N\OC/C=C/Cl)C1C(=O)CC(C2CCOCC2)CC1=O (stereo not given) [2-{1-[(E)-(E)-3-Chloro-allyloxyimino]-propyl}-3-hydroxy-5-(tetrahydro-pyran-4-yl)-cyclohex-2-enone] | 40
2 | CCC/C(=N\OCC)C1C(=O)CC(C2CCCSC2)CC1=O (stereo not given) [2-{1-[(E)-Ethoxyimino]-butyl}-3-hydroxy-5-(tetrahydro-thiopyran-3-yl)-cyclohex-2-enone] | 40
3 | CCC/C(=N\OCC)C1C(=O)CC(CC(C)SCC)CC1=O (stereo not given) [2-{1-[(E)-Ethoxyimino]-butyl}-5-(2-ethylsulfanyl-propyl)-3-hydroxy-cyclohex-2-enone] | 40
4 | CCO/N=C(\CC)C1C(=O)CC(c2c(C)cc(C)cc2C)CC1=O (stereo not given) [2-{1-[(E)-Ethoxyimino]-propyl}-3-hydroxy-5-(2,4,6-trimethyl-phenyl)-cyclohex-2-enone] | 40
5 | CCSC(C)CC1CC(=O)C(/C(CC)=N/OC/C=C/Cl)C(=O)C1 (stereo not given) [clethodim] | 40

Reference: BindingDB's records for doi:10.1016/s0960-894x(03)00664-4 (Eli Lilly, 2003)
